Laboratory results as given in article PMC7160362, “A Polyamine-Based Dinitro-Naphthalimide Conjugate as Substrates for Polyamine Transporters Preferentially Accumulates in Cancer Cells and Minimizes Side Effects in vitro and in vivo” (Frontiers in Chemistry, 2020).
Where two headings read alike, the source gives them in different places.

Experiments:
[1] = tested on: MDA-MB-231 cells (triple negative breast cancer); experiment: MTT cytotoxicity assay; type: cell-based; conditions: MTT, 48 h
Experimental: (§1) We incubated hepatic carcinoma (Snu-368 and Snu-739), breast carcinoma (MDA-MB-231 and MCF-7), cisplatin-sensitive lung cancer cells A549, and cisplatin-resistant lung cancer cells A549cisR in 96-well plates in a 5% CO2 atmosphere at 37°C for 24 h (5,000 cells/well). After adding drugs in freshly prepared culture medium (100 μl) and incubating for another 48 h, we added 20 μl MTT (5 mg/ml) and incubated for another 3 h. At last, after the medium was removed, 150 μl DMSO was added. By using a Bio-Rad 680 microplate reader, the absorbance was measured at 570 nm and the IC50 values were calculated using the GraphPad Prism software based on three parallel experiments.
(§2) In vitro assays were firstly conducted to evaluate the inhibitory effect of polyamine-based naphthalimide conjugates 5a-5c, 7a-7b, and 11a-11b on six cancer cell lines, namely, Snu-368 and Sun-739 (hepatoma cell line), MCF-7 (breast carcinoma), MDA-MB-231 (triple negative breast cancer), cisplatin-sensitive lung cancer A549, and resistant A549cisR cells by using traditional MTT tests. Two classic antitumor agents in clinic trials, amonafide and cisplatin, were chosen as the reference drugs (Table 1). The preliminary structure–activity relationship (SAR) can be obtained from the in vitro biological results.

[2] = tested on: cisplatin-sensitive lung cancer cells A549; experiment: MTT cytotoxicity assay; type: cell-based; conditions: MTT, 48 h
Experimental: as §1, §2

[3] = tested on: Snu-739 cells (hepatic carcinoma); experiment: MTT cytotoxicity assay; type: cell-based; conditions: MTT, 48 h
Experimental: as §1, §2

[4] = tested on: Snu-368 cells (hepatic carcinoma); experiment: MTT cytotoxicity assay; type: cell-based; conditions: MTT, 48 h
Experimental: as §1, §2

[5] = tested on: MCF-7 cells (breast carcinoma); experiment: MTT cytotoxicity assay; type: cell-based; conditions: MTT, 48 h
Experimental: as §1, §2

[6] = tested on: cisplatin-resistant lung cancer cells A549cisR; experiment: MTT cytotoxicity assay; type: cell-based; conditions: for IC50: MTT, 48 h; for RF (resistance factor): IC50 in A549cisR cells/IC50 in A549 cells
Experimental: as §1, §2

[7] = tested on: HL-7702 (normal liver cell); experiment: MTT cytotoxicity on matched normal cells; type: cell-based; conditions: for SI (selectivity index), range over Snu-368 and Snu-739: HL-7702 versus Snu-368 and Snu-739; for IC50: normal liver cell, read-out: IC50 HL-7702
Experimental: as §1
The selectivity for cancer cells over normal healthy cells is important for ideal anticancer agents, thereby mitigating undesired toxic side effects associated with chemotherapy. The selectivity of polyamine-based dinitro-naphthalimide conjugates 5a-5c was evaluated by Snu-368 and Snu-739 (hepatic carcinoma), and the matched normal cells HL-7702 (normal liver cell). Moreover, dinitro-naphthalimide conjugates 5a-5c (SI 1.94–7.47) show lower cytotoxicity in normal cells.

HCC xenografts = experiment: In vivo antitumor assay, HCC xenografts; conditions: 5 mg/kg, tail vein, once every day for 7 days
Text: Healthy BALB/c mice (Cat. SCXK 2016-0006, Beijing, China) aged 5 weeks were used for the determination of anticancer activity. We obtained BALB/c mice from the Laboratory Animal Center, Academy of Military Medical Science. They were raised in compliance with the Guide for the Care and Use of Laboratory Animals. The weight of healthy BALB/c mice is 18–22 g.
We firstly injected HCC cells with 1 × 10^6 cells per mouse to determine the anticancer activity. After a week, the tumors increased to 80–120 mm^3. The mice were divided into four groups for 5c (3 mg/kg), 5c (5 mg/kg), the positive control amonafide (5 mg/kg), or the negative control physiological saline. We injected 5c or amonafide via the tail vein every day for a total of seven treatments. Body weight was determined every day. And then the mice were sacrificed after 7 days. The tumor tissues were weighed and the inhibition rate [((average tumor weight of negative control group – average tumor weight of the drug treated or positive control group)/average tumor weight of control group) × 100] was calculated. The organ index [(organ weight/body weight) × 100%] was also counted including heart, liver, kidney, lung, and spleen at the last day. Both 5c and amonafide were dissolved in glucose injection. And they were used immediately after preparation.
The highest FI levels in Snu-739 also indicate a significant therapy for HCC. Therefore, HCC animal models were used to test the in vivo antitumor activities. Mice bearing HCC xenografts were treated with 5c (3 mg/kg), 5c (5 mg/kg), the positive control amonafide (5 mg/kg), and normal saline (negative control) once every day for 7 days by tail vein (Figure 3).

SMILES | IC50 ([1]; Homo sapiens, MDA-MB-231) [µM] | IC50 ([2]; Homo sapiens, A549) [µM] | IC50 ([3]; SNU-739) [µM] | IC50 [4] [µM] | IC50 ([5]; Homo sapiens, MCF7) [µM] | IC50 [6] [µM] | RF (resistance factor) [6] | SI (selectivity index) IC50 in HL-7702/IC50 in Snu-368 [7] | SI (selectivity index) IC50 in HL-7702/IC50 in Snu-739 [7] | SI (selectivity index), range over Snu-368 and Snu-739 [7] | IC50 ([7]; Homo sapiens, L02) [µM] | tumor suppression (inhibition rate, tumor weight) (HCC xenografts) [%] | IC50 [1] [µM] | IC50 [2] [µM] | IC50 [3] [µM] | IC50 [5] [µM] | IC50 [7] [µM]
NCCCNCCCCNCCCN1C(=O)c2cc(N)cc3cc(N)cc(c23)C1=O [11b] | > 30 | > 30 | 23.2 ± 2.36 | > 30 | 25.9 ± 2.56 | 15.8 ± 1.58 |  |  |  |  |  |  |  |  |  |  | 
CN(C)CCN1C(=O)c2cccc3cc(N)cc(c23)C1=O [Amonafide, amonafide, reference compound] | 14.9 ± 1.75 | 6.89 ± 0.68 | 13 ± 1.56 | 14 ± 1.78 | 5.89 ± 0.56 | 11 ± 1.02 | 1.59 | 0.83 | 0.89 | 0.83–0.89 | 11.6 ± 1.36 | 53.27 |  |  |  |  | 
N.N.[Cl][Pt][Cl] [Cisplatin, cisplatin, reference compound] |  |  |  | 16.4 ± 1.26 |  | 40.4 ± 4.36 | 3.67 | 0.53 | 0.86 | 0.53–0.86 |  |  | 16 ± 1.59 | 11 ± 0.15 | 10 ± 1.23 | 9.6 ± 0.6 | 8.6 ± 0.2
NCCCCNCCCCN1C(=O)c2cc(N)cc3cc(N)cc(c23)C1=O [7b] | > 30 | > 30 | > 30 | > 30 | > 30 | 17.3 ± 1.78 |  |  |  |  |  |  |  |  |  |  | 
